The test system of experiment [1] is tyrosine phosphorylated FER in H1155 cells. Briefly: pY immunoprecipitation of FER. The class given is cell-based. The conditions noted are these: 3 hours, 1 μM.
The next experiment concerns FAK autophosphorylation. Briefly: FAK autophosphorylation immunoblot. The class given is cell-based. Particulars: at the concentrations used.
The next experiment concerns NSCLC cell lines. Briefly: viability-based drug screen and dose response. Particulars: 72 hours treatment; screen at 0.5 μM and 2.5 μM, confirmed in 14 NSCLC cell lines.
The subject of a further experiment is SCLC cell lines. Briefly: viability of SCLC cell lines. The class given is cell-based. Particulars: 72 hours treatment.
A further experiment concerns H1155 cells. Briefly: H1155 cell viability with tool compounds alone or combined. The conditions noted are these: compared to AURKB inhibition. The class given is cell-based.
Experiment [2] has as its system MET autophosphorylation in H1648 cells.
The subject of the next experiment is A427 cells. The experiment is described as follows: crystal violet clonogenic assay. The conditions noted are these: 10 days. The class given is cell-based.
For experiment [3], the system named is pERK at T202/Y204 (substrate sites of MEK1/2). The experiment is described as follows: Western blot of pERK. The class given is cell-based. Particulars: H1155 and A427 cells; 1 hour; 0.1, 0.5 and 1 μM. (In general: In western blotting, separated proteins are transferred to a membrane and probed.)
The subject of experiment [4] is histone H3 at S10 (downstream target of AURKB). Briefly: Western blot of pH3. The class given is cell-based. The conditions noted are these: H1155 cells, 6 hours, 0.05, 0.25 and 0.5 μM.
Another experiment has as its target FER (Homo sapiens, UniProt P16591). Briefly: in vitro kinase assay FER. The class given is biochemical. The conditions noted are these: 10 μM ATP; compared with cabozantinib.
Experiment [5] deals with H1155 and A427 cells. Briefly: cell cycle analysis. The class given is cell-based. The conditions noted are these: 6 hours.
Another experiment addresses T1, AURKA (Homo sapiens, UniProt O14965).
T1 sequence (O14965 1-403): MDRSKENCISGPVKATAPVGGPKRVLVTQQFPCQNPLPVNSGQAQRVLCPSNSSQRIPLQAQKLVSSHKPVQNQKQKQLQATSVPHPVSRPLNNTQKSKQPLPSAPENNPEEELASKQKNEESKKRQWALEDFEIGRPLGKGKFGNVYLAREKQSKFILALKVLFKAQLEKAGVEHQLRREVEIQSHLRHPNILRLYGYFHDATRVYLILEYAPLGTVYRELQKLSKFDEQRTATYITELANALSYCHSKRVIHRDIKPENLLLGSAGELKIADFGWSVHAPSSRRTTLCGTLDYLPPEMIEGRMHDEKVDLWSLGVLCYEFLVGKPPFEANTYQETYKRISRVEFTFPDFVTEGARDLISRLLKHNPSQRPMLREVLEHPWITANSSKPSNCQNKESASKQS
Briefly: in vitro kinase assay AURKA. The class given is biochemical. The conditions noted are these: 10 μM ATP; compared with cabozantinib.

The next experiment has as its target MEK1 (Homo sapiens, UniProt Q02750). The experiment is described as follows: in vitro kinase assay MEK1. The conditions noted are these: 10 μM ATP; compared with cabozantinib. The class given is biochemical.
Experiment [6] concerns H1155 and A427 cells. The class given is cell-based. Particulars: 0.5 μM and 1 μM, 24 hours (blot), 24 and 48 hours (imaging).
Another experiment has as its target SRC (Homo sapiens, UniProt P12931). Briefly: in vitro kinase assay SRC. The class given is biochemical. The conditions noted are these: 10 μM ATP; compared with cabozantinib.
Another experiment deals with AURKB (Homo sapiens, UniProt Q96GD4). The experiment is described as follows: in vitro kinase assay AURKB. The conditions noted are these: 10 μM ATP; compared with cabozantinib. The class given is biochemical.
In experiment [7] the test system is SRC autophosphorylation at Y419 in H1155 cells. The experiment is described as follows: SRC autophosphorylation at Y419. The class given is cell-based. Particulars: data not shown.
Another experiment deals with MET (Homo sapiens, UniProt P08581). The experiment is described as follows: pulldowns with H1648 lysate and in vitro MET kinase assays of probes. The class given is biochemical.
For another experiment, the system named is MEK2. Particulars: read-out: IC50 MEK2; second value of MEK1/2 pair; ref Yamaguchi et al., 2011; cited from earlier work.

Data on eight molecules can be found in paper PMC6754293 (Cell chemical biology, 2019).

For orientation: IC50 means the concentration that gives 50% inhibition.

Chain of MEK1 (Q02750 whole entry): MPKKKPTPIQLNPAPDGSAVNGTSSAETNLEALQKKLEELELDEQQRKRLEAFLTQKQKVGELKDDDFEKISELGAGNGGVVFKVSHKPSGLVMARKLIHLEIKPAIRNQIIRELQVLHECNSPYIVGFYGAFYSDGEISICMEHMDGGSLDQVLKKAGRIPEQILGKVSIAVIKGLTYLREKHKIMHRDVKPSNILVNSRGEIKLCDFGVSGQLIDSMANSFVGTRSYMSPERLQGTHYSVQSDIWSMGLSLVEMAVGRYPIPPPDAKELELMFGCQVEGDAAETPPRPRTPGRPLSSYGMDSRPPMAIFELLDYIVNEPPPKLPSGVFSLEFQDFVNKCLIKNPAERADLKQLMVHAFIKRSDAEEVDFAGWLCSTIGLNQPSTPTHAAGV
Chain of SRC (P12931 whole entry): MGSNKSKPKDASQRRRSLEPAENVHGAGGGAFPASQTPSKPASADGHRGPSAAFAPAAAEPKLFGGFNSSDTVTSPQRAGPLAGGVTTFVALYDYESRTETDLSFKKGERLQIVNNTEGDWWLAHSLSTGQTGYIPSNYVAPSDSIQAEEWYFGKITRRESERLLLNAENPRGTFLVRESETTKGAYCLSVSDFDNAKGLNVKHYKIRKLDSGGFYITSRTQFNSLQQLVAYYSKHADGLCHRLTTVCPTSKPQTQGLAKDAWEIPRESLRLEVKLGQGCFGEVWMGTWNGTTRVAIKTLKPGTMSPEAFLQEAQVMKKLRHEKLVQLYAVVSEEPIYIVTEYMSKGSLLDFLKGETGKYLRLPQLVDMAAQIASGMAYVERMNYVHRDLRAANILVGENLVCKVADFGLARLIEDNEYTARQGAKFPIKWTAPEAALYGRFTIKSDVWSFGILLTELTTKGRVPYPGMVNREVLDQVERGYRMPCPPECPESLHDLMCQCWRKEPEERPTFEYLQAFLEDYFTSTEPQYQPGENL
Chain of AURKB (Q96GD4 whole entry): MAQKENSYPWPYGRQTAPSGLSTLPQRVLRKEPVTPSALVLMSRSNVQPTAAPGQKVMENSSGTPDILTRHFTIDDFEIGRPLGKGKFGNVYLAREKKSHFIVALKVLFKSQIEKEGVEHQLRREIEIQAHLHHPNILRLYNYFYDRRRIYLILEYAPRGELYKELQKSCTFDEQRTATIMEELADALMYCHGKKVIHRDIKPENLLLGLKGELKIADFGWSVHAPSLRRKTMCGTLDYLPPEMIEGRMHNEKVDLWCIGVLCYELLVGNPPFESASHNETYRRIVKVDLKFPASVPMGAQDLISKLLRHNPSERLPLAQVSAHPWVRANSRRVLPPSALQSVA
Chain of MET (P08581 25-1390): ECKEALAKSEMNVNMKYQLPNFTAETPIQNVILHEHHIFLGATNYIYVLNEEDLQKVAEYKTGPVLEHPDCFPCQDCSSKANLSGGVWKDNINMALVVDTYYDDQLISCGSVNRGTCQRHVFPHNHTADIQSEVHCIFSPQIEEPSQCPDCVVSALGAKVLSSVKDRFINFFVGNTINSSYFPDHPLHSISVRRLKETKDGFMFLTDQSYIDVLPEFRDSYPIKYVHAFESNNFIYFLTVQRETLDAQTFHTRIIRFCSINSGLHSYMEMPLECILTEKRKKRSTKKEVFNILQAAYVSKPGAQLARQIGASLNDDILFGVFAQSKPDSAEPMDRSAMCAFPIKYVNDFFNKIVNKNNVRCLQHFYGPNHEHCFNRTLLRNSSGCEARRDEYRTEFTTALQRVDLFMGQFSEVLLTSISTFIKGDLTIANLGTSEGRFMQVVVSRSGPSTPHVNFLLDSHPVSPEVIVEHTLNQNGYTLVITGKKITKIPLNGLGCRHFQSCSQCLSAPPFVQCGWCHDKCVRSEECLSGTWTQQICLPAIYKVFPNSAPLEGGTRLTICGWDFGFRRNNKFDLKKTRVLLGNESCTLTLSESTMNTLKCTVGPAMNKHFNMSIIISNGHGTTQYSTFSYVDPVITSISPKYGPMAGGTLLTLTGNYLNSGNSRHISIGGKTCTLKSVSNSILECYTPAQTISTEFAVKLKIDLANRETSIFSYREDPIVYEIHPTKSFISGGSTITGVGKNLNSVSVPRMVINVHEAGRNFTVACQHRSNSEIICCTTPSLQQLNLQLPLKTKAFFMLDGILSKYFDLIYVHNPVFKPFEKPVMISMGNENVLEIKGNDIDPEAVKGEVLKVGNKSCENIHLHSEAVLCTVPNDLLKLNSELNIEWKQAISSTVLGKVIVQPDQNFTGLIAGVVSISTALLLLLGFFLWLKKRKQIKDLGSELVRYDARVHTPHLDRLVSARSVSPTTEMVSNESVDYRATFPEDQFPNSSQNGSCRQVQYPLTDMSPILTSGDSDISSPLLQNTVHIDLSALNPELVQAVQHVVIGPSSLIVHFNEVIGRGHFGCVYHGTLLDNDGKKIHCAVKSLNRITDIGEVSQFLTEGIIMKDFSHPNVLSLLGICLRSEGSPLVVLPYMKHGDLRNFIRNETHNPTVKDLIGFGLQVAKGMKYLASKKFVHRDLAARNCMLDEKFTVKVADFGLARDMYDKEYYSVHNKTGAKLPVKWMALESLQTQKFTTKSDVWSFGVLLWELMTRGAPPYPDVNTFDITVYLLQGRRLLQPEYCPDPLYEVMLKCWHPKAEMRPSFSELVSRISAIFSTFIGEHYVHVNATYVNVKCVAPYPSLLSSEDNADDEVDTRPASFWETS
Chain of FER (P16591 whole entry): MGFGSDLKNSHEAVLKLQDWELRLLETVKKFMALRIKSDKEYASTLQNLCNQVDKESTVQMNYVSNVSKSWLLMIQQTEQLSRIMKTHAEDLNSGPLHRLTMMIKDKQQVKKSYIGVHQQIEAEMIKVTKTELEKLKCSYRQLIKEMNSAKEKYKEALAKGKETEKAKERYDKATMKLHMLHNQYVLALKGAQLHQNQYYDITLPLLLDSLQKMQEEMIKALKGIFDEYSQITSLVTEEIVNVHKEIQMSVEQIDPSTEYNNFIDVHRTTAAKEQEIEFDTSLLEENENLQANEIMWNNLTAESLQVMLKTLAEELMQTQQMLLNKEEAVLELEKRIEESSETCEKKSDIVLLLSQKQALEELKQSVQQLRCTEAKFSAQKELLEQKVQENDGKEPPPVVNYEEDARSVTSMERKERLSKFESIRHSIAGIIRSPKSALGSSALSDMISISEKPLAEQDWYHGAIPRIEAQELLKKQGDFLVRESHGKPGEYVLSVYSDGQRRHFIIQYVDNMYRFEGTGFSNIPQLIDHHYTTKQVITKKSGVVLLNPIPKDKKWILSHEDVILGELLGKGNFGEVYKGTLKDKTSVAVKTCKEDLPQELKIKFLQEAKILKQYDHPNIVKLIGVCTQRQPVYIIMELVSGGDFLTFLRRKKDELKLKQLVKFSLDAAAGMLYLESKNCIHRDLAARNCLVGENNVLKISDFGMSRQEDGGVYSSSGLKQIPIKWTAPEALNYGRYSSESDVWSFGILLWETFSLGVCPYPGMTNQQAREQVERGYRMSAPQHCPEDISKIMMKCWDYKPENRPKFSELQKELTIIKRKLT

For `CNC(=O)c1c(F)cccc1Nc1nc(Nc2cc3c(cc2OC)CCN3C(=O)CN(C)C)nc2[nH]ccc12` [GSK1838705A], the “phosphorylation changes of FER (pY immunoprecipitation)” value in experiment [1] was “phosphorylation changes of FER”. The FAK autophosphorylation entry in the experiment with FAK autophosphorylation was “not affected”.
With `OCCn1cc(-c2cnc3nnn(Cc4ccc5ncccc5c4)c3n2)cn1` [PF-04217903], the “effect on viability of NSCLC cell lines” value in the experiment with NSCLC cell lines was “little to no effects”. In the experiment on SCLC cell lines, the “effect on viability of SCLC cells” value is given as “no effect on SCLC cells”.
Turning to `COc1cc(Nc2ncc3c(n2)-c2ccc(Cl)cc2C(c2c(F)cccc2OC)=NC3)ccc1C(=O)O` [alisertib], the “decrease of H1155 viability on combining with FER and MEK1/2 inhibition” value in the experiment on H1155 cells is given as “only in a minor decrease of viability”.
As for `COc1cc2nccc(Oc3ccc(NC(=O)C4(C(=O)Nc5ccc(F)cc5)CC4)cc3)c2cc1OC` [cabozantinib], the “effect on viability of NSCLC cell lines” value in the experiment on NSCLC cell lines is listed as “little to no effects”. Besides, the “inhibition of MET autophosphorylation” value in experiment [2] is recorded as “inhibited MET autophosphorylation”. Moreover, the “inhibition of A427 cell growth, clonogenic assay” value in the experiment on A427 cells was “in contrast to cabozantinib”. The “phosphorylation of pERK at T202/Y204” value in [3] is recorded as “in contrast to cabozantinib”. The “effect on viability of SCLC cells” value in the experiment with SCLC cell lines is on record as “in contrast to cabozantinib”.
On to `COc1cc2c(Oc3ccc(NC(=O)C4(C(=O)Nc5ccc(F)cc5)CC4)cc3F)ccnc2cc1OCCCN1CCOCC1` [foretinib], for which the “effect on viability of NSCLC cell lines” value in the experiment on NSCLC cell lines was “much higher cellular activity compared to cabozantinib”. In addition, the “phosphorylation of histone H3 at S10” value in experiment [4] is “decreased phosphorylation of histone H3 at S10”. The “FER inhibition, in vitro kinase assay” value on FER is reported as “more potently inhibited by foretinib than by cabozantinib”. Besides, the “phosphorylation changes of FER (pY immunoprecipitation)” value in experiment [1] was “phosphorylation changes of FER”. Besides, the “drug-induced cell cycle changes” value in the experiment with H1155 and A427 cells [5] was “pronounced accumulation of cells in G2 phase”. The FAK autophosphorylation entry in the experiment with FAK autophosphorylation is reported as “not affected”. Also, the “AURKA inhibition, in vitro kinase assay” value on AURKA is “more potently inhibited by foretinib than by cabozantinib”. In addition, the “inhibition of A427 cell growth, clonogenic assay” value in the experiment on A427 cells is “inhibited A427 cell growth”. On MEK1, the “MEK1 inhibition, in vitro kinase assay” value is listed as “more potently inhibited by foretinib than by cabozantinib”. Besides, the “induction of apoptosis (PARP1 and caspase 3 cleavage, caspase 3/7)” value in the experiment with H1155 and A427 cells [6] is “induced apoptosis”. The “phosphorylation of pERK at T202/Y204” value in [3] is given as “decreased phosphorylation of pERK”. At SRC, the “SRC inhibition, in vitro kinase assay” value is recorded as “more potently inhibited by foretinib than by cabozantinib”. For the same molecule, the “AURKB inhibition, in vitro kinase assay” value on AURKB is on record as “more potently inhibited by foretinib than by cabozantinib”. The “SRC autophosphorylation at Y419” value in [7] is “did not decrease SRC autophosphorylation”. Moreover, the “effect on viability of SCLC cells” value with SCLC cell lines is on record as “potently inhibited viability of MYC-amplified SCLC cells, but not SCLC cells without MYC amplification”.
As to `COc1cc2c(Oc3ccc(N(C(=O)C4(C(N)=O)CC4)c4ccc(F)cc4)cc3F)ccnc2cc1OCCCN1CCN(CCCN)CC1` [i-foretinib, N-(4-((7-(3-(4-(3-aminopropyl)piperazin-1-yl)propoxy)-6-methoxyquinolin-4-yl)oxy)-3-fluorophenyl)-N-(4-fluorophenyl)cyclopropane-1,1-dicarboxamide], on MET, the “ability to bind and inhibit MET” value was “retained their ability to bind and inhibit MET”.
For the molecule `CC1(C)CNc2cc(NC(=O)c3cccnc3NCc3ccncc3)ccc21` [motesanib], the “effect on viability of NSCLC cell lines” value in the experiment on NSCLC cell lines is on record as “little to no effects”. Besides, in the experiment with SCLC cell lines, the “effect on viability of SCLC cells” value was “no effect on SCLC cells”.
As to `CC(=O)Nc1cccc(-n2c(=O)n(C3CC3)c(=O)c3c(Nc4ccc(I)cc4F)n(C)c(=O)c(C)c32)c1` [trametinib], the IC50 in the experiment on MEK2 was […].
